Earlier results, collected in patent publication US20190214145A1, “Method and systems for creating and screening patient metabolite profile to diagnose current medical condition, diagnose current treatment state and recommend new treatment regimen” (priority 2018, published 2019).

Assays:
[1] = vaporizing temperature
submandibular gland = settings: rats, saliva from ducts of the submandibular gland
[2] = upon inhalation, even in low concentrations
[3] = intravenous, amount equivalent to one cannabis cigarette

Compound: CC12CCC(CC1)C(C)(C)O2 [1,8-cineole]
- BP [1]: 176 °C

Compound: CCCCC/C=C\C/C=C\C/C=C\C/C=C\CCCC(=O)N[C@H](C)CO [(R)-(+)-methanandamide]
- Ca 2+ concentration of saliva (submandibular gland): increase
- Other electrolytes of saliva (submandibular gland): no changes
- Saliva flow rate (submandibular gland): significant decrease
- Total protein content of saliva (submandibular gland): increase

Compound: O=c1cc(-c2ccc(O)cc2)oc2cc(O)cc(O)c12 [Apigenin]
- BP [1]: 178 °C

Compound: CC1(C)C2CCC1(C)C(O)C2 (centres unmarked) [Borneol]
- BP [1]: 210 °C

Compound: CCCCCc1cc2c(c(O)c1C(=O)O)C=CC(C)(CCC=C(C)C)O2 (centres unmarked) [CBCA]
- BP [1]: 145 °C

Compound: CCCCCc1cc(O)c2c(c1)OC(C)(CCC=C(C)C)C=C2 (centres unmarked) [CBC]
- BP [1]: 220 °C

Compound: C=C(C)[C@@H]1CCC(C)=C[C@H]1c1c(O)cc(CCCCC)cc1O [CBD, reference compound]
- BP [1]: 180 °C

Compound: C=C(C)[C@@H]1CCC(C)=C[C@H]1c1c(O)cc(CCCCC)c(C(=O)O)c1O [CBDA]
- BP [1]: 120 °C

Compound: COc1cc(-c2cc(=O)c3c(O)c(C/C=C(\C)CCC=C(C)C)c(O)cc3o2)ccc1O [Cannflavin A]
- BP [1]: 182 °C

Compound: CC(C)=CCCC(C)CCO (centres unmarked) [Citronellol]
- Sedation [2]: deeply sedating

Compound: C=C(C)[C@H]1CC=C(C)CC1 [D-limonene]
- BP [1]: 177 °C

Compound: CCCn1c(C)c(C(=O)c2cccc3ccccc23)c2ccccc21 [JWH015]
- Ca 2+ concentration of saliva (submandibular gland): increase
- Other electrolytes of saliva (submandibular gland): no changes
- Saliva flow rate (submandibular gland): significant decrease
- Total protein content of saliva (submandibular gland): increase

Compound: C=CC(C)(O)CCC=C(C)C (centres unmarked) [Linalool]
- BP [1]: 198 °C

Compound: Cc1ccc(C(C)C)cc1 [P-cymene]
- BP [1]: 177 °C

Compound: CC(C)=C1CC[C@@H](C)CC1=O [Pulegone]
- BP [1]: 224 °C

Compound: CC1=CCC(O)(C(C)C)CC1 (centres unmarked) [Terpinol-4-ol]
- BP [1]: 209 °C

Compound: Cc1c(C(=O)c2cccc3ccccc23)c2cccc3c2n1[C@H](CN1CCOCC1)CO3 [WIN55212-2T]
- Ca 2+ concentration of saliva (submandibular gland): increase
- Other electrolytes of saliva (submandibular gland): no changes
- Saliva flow rate (submandibular gland): significant decrease
- Total protein content of saliva (submandibular gland): increase

Compound: CCCCCc1cc2c(c(O)c1C(=O)O)[C@@H]1C=C(C)CC[C@H]1C(C)(C)O2 [Δ9THCA]
- BP [1]: 104 °C

Compound: CCCCCc1cc(O)c2c(c1)OC(C)(C)[C@@H]1CCC(C)=C[C@@H]21 [Δ9THC]
- Heart rate [3]: significantly increases
- Phosphoenolpyruvate (PEP) [3]: decreases
- Systolic or diastolic arterial pressure [3]: without any change
- BP [1]: 157 °C

Compound: CC1=CCC2C(C1)C2(C)C (centres unmarked) [Δ-3-carene]
- BP [1]: 168 °C

Compound: CC1=CCC(C(C)(C)O)CC1 (stereo not drawn) [α-terpineol]
- Sedation [2]: deeply sedating
- BP [1]: 217 °C

Compound: CC1=CC[C@@H](C(C)(C)O)CC1 [α-terpinol]
- BP [1]: 156 °C

Compound: C=C1CC/C=C(\C)CC[C@@H]2[C@@H]1CC2(C)C [β-caryophyllene]
- BP [1]: 199 °C

Compound: C=CC(=C)CCC=C(C)C [β-myrcene]
- BP [1]: 167 °C

Compound: CC[C@H](CC[C@@H](C)[C@H]1CC[C@H]2[C@@H]3CC=C4C[C@@H](O)CC[C@]4(C)[C@H]3CC[C@]12C)C(C)C [β-sitosterol]
- BP [1]: 134 °C
